Results taken from ChEMBL document CHEMBL1143815, “Spread of extended-spectrum beta-lactamase CTX-M-producing escherichia coli clinical isolates in community and nosocomial environments in Portugal” (2007).
Values after ≈ are worked out from the molar mass of the structure shown.

Key:
Assay type in all cases: functional
Escherichia coli [1] = assay: Antibacterial activity against Escherichia coli INSRA5776 isolates expressing CTX-M-14 and TEM-1B enzymes by agar dilution method
Escherichia coli [2] = assay: Antibacterial activity against CTX-M group 1 enzyme producing Escherichia coli isolates by broth microdilution method
Escherichia coli [3] = assay: Antibacterial activity against CTX-M group 1 enzyme producing Escherichia coli isolates assessed as percent resistant isolates by broth microdilution method
Escherichia coli [4] = assay: Antibacterial activity against CTX-M group 1 enzyme producing Escherichia coli isolates assessed as percent nonsusceptible isolates by broth microdilution method
Escherichia coli [5] = assay: Antibacterial activity against CTX-M group 9 enzyme producing Escherichia coli isolates by broth microdilution method
Escherichia coli [6] = assay: Antibacterial activity against CTX-M group 9 enzyme producing Escherichia coli isolates assessed as percent nonsusceptible isolates by broth microdilution method
Escherichia coli [7] = assay: Antibacterial activity against Escherichia coli DH5 alpha isolates by agar dilution method
Escherichia coli [8] = assay: Antibacterial activity against Escherichia coli DH5 alpha-URA5776 isolates expressing CTX-M-14 enzyme by agar dilution method
Escherichia coli [9] = assay: Antibacterial activity against Escherichia coli INSRA5905 isolates expressing CTX-M-15 and TEM-1B enzymes by agar dilution method
Escherichia coli [10] = assay: Antibacterial activity against Escherichia coli DH5 alpha-URA5905 isolates expressing CTX-M-15 and TEM-1B enzymes by agar dilution method
Escherichia coli [11] = assay: Antibacterial activity against Escherichia coli INSRA5924 isolates expressing CTX-M-32 and TEM-1B enzymes by agar dilution method
Escherichia coli [12] = assay: Antibacterial activity against Escherichia coli DH5 alpha-URA5924 isolates expressing CTX-M-32 by agar dilution method
Escherichia coli [13] = assay: Antibacterial activity against CTX-M group 9 enzyme producing Escherichia coli isolates assessed as percent resistant isolates by broth microdilution method

SMILES	MIC (Escherichia coli [1]) [µg/mL]	MIC50 (Escherichia coli [2]) [µg/mL]	MIC90 (Escherichia coli [2]) [µg/mL]	Activity (Escherichia coli [3]) [%]	Activity (Escherichia coli [4]) [%]	MIC50 (Escherichia coli [5]) [µg/mL]	MIC90 (Escherichia coli [5]) [µg/mL]	Activity (Escherichia coli [6]) [%]	MIC (Escherichia coli [7]) [µg/mL]	MIC (Escherichia coli [8]) [µg/mL]	MIC (Escherichia coli [9]) [µg/mL]	MIC (Escherichia coli [10]) [µg/mL]	MIC (Escherichia coli [11]) [µg/mL]	MIC (Escherichia coli [12]) [µg/mL]	Activity (Escherichia coli [13]) [%]
CO/N=C(\C(=O)N[C@@H]1C(=O)N2C(C(=O)O)=C(COC(C)=O)CS[C@H]12)c1csc(N)n1 (stereo in doubt) [CEFOTAXIME]	32 (≈ 70.3 µM)	> 32	> 32	99	100	> 32	> 32	100	0.06 (≈ 0.132 µM)	32 (≈ 70.3 µM)	512 (≈ 1120 µM)	512 (≈ 1120 µM)	256 (≈ 562 µM)	128 (≈ 281 µM)	–
CC1(C)S[C@@H]2[C@H](NC(=O)C(C(=O)O)c3ccsc3)C(=O)N2[C@H]1C(=O)O (single isomer, unassigned) [TICARCILLIN]	> 4100	> 64	> 64	–	100	> 64	> 64	100	4 (≈ 10.4 µM)	> 4100	> 4100	> 4100	> 4100	> 4100	–
CC(=O)OCC1=C(C(=O)O)N2C(=O)[C@@H](NC(=O)Cc3cccs3)[C@H]2SC1 [CEPHALOTHIN]	> 1020	> 16	> 16	–	100	> 16	> 16	100	8 (≈ 20.2 µM)	1020 (≈ 2580 µM)	> 1020	> 1020	> 1020	> 1020	–
CCN1CCN(C(=O)N[C@@H](C(=O)N[C@@H]2C(=O)N3C(C(=O)O)=C(CSc4nnnn4C)CS[C@H]23)c2ccc(O)cc2)C(=O)C1=O [CEFOPERAZONE]	256 (≈ 396 µM)	–	–	–	–	–	–	–	≤ 0.25	16 (≈ 24.8 µM)	> 512	256 (≈ 396 µM)	256 (≈ 396 µM)	64 (≈ 99.1 µM)	–
C[C@@H](O)[C@H]1C(=O)N2C(C(=O)O)=C(SCCNC=N)C[C@H]12 [IMIPENEM ANHYDROUS]	≤ 0.06	≤ 0.5	≤ 0.5	–	0	≤ 0.5	≤ 0.5	0	–	0.5 (≈ 1.67 µM)	0.25 (≈ 0.835 µM)	–	0.125 (≈ 0.418 µM)	0.125 (≈ 0.418 µM)	–
COc1cc(Cc2cnc(N)nc2N)cc(OC)c1OC [TRIMETHOPRIM]	64 (≈ 220 µM)	–	–	–	–	–	–	–	≤ 0.125	> 64	≤ 0.125	≤ 0.125	0.25 (≈ 0.861 µM)	≤ 0.125	–
NC[C@H]1O[C@H](O[C@H]2[C@H](O)[C@@H](O[C@H]3O[C@H](CO)[C@@H](O)[C@H](N)[C@H]3O)[C@H](N)C[C@@H]2N)[C@H](N)C[C@@H]1O [TOBRAMYCIN]	–	> 8	> 8	94	95	≤ 2	> 8	22	–	–	–	–	–	–	–
CCN1CCN(C(=O)N[C@@H](C(=O)N[C@@H]2C(=O)N3[C@@H]2SC(C)(C)[C@@H]3C(=O)O)c2ccccc2)C(=O)C1=O [PIPERACILLIN]	256 (≈ 495 µM)	> 64	> 64	–	100	> 64	> 64	100	2 (≈ 3.86 µM)	256 (≈ 495 µM)	> 512	512 (≈ 989 µM)	> 512	512 (≈ 989 µM)	–
CO/N=C(\C(=O)N[C@@H]1C(=O)N2C(C(=O)O)=C(CSc3nc(=O)c(O)nn3C)CS[C@H]12)c1csc(N)n1 (stereo in doubt) [CEFTRIAXONE]	32 (≈ 57.7 µM)	> 32	> 32	–	100	> 32	> 32	100	0.03 (≈ 0.0541 µM)	32 (≈ 57.7 µM)	> 512	256 (≈ 462 µM)	256 (≈ 462 µM)	64 (≈ 115 µM)	–
CO/N=C(\C(=O)N[C@@H]1C(=O)N2C(C(=O)[O-])=C(C[N+]3(C)CCCC3)CS[C@H]12)c1csc(N)n1	8 (≈ 16.6 µM)	> 16	> 16	–	–	> 16	> 16	100	0.03 (≈ 0.0624 µM)	2 (≈ 4.16 µM)	–	8 (≈ 16.6 µM)	16 (≈ 33.3 µM)	4 (≈ 8.32 µM)	78
CO[C@@]1(NC(=O)Cc2cccs2)C(=O)N2C(C(=O)O)=C(COC(N)=O)CS[C@@H]21 [CEFOXITIN]	32 (≈ 74.9 µM)	≤ 4	8 (≈ 18.7 µM)	1	5	≤ 4	> 16	11	4 (≈ 9.36 µM)	4 (≈ 9.36 µM)	16 (≈ 37.4 µM)	4 (≈ 9.36 µM)	16 (≈ 37.4 µM)	8 (≈ 18.7 µM)	0
CC1(C)S[C@@H]2[C@H](NC(=O)[C@H](N)c3ccc(O)cc3)C(=O)N2[C@H]1C(=O)O [AMOXICILLIN]	> 4100	–	–	–	–	–	–	–	8 (≈ 21.9 µM)	> 4100	> 4100	> 4100	> 4100	> 4100	–
CC1(C)S[C@@H]2[C@H](/N=C\N3CCCCCC3)C(=O)N2[C@H]1C(=O)O	1 (≈ 3.07 µM)	–	–	–	–	–	–	–	0.125 (≈ 0.384 µM)	0.5 (≈ 1.54 µM)	2 (≈ 6.15 µM)	2 (≈ 6.15 µM)	2 (≈ 6.15 µM)	0.5 (≈ 1.54 µM)	–
CC1(C)S[C@@H]2[C@H](NC(=O)[C@H](N)c3ccccc3)C(=O)N2[C@H]1C(=O)O [AMPICILLIN]	–	> 16	> 16	–	100	> 16	> 16	100	–	–	–	–	–	–	–
O=C(O)c1cn(C2CC2)c2cc(N3CCNCC3)c(F)cc2c1=O [CIPROFLOXACIN]	256 (≈ 773 µM)	> 2	> 2	–	98	≤ 0.5	> 2	33	≤ 0.125	≤ 0.125	1020 (≈ 3090 µM)	≤ 0.125	–	≤ 0.125	–
Cc1nnc(SCC2=C(C(=O)O)N3C(=O)[C@@H](NC(=O)Cn4cnnn4)[C@H]3SC2)s1 [CEFAZOLIN]	–	> 16	> 16	–	100	> 16	> 16	100	–	–	–	–	–	–	–
NCC[C@H](O)C(=O)N[C@@H]1C[C@H](N)[C@@H](O[C@H]2O[C@H](CN)[C@@H](O)[C@H](O)[C@H]2O)[C@H](O)[C@H]1O[C@H]1O[C@H](CO)[C@@H](O)[C@H](N)[C@H]1O [AMIKACIN]	–	≤ 8	16 (≈ 27.3 µM)	4	7	≤ 8	16 (≈ 27.3 µM)	0	–	–	–	–	–	–	–
CO/N=C(\C(=O)N[C@@H]1C(=O)N2C(C(=O)O)=C(COC(N)=O)CS[C@H]12)c1ccco1 [CEFUROXIME]	> 256	> 16	> 16	–	100	> 16	> 16	100	4 (≈ 9.43 µM)	> 256	> 256	> 256	> 256	> 256	–
C[C@H]1[C@H](NC(=O)/C(=N\OC(C)(C)C(=O)O)c2csc(N)n2)C(=O)N1S(=O)(=O)O [AZTREONAM]	8 (≈ 18.4 µM)	> 16	> 16	100	100	8 (≈ 18.4 µM)	> 16	22	–	8 (≈ 18.4 µM)	128 (≈ 294 µM)	64 (≈ 147 µM)	64 (≈ 147 µM)	64 (≈ 147 µM)	11
CC(C)(O/N=C(\C(=O)N[C@@H]1C(=O)N2C(C(=O)[O-])=C(C[n+]3ccccc3)CS[C@H]12)c1csc(N)n1)C(=O)O [CEFTAZIDIME]	2 (≈ 3.66 µM)	> 16	> 16	98	99	2 (≈ 3.66 µM)	> 16	11	0.25 (≈ 0.457 µM)	1 (≈ 1.83 µM)	128 (≈ 234 µM)	64 (≈ 117 µM)	16 (≈ 29.3 µM)	16 (≈ 29.3 µM)	11
CCn1cc(C(=O)O)c(=O)c2cc(F)c(N3CCNCC3)cc21 [NORFLOXACIN]	–	> 8	> 8	98	98	≤ 2	> 8	33	–	–	–	–	–	–	33
C[C@@H](O)[C@H]1C(=O)N2C(C(=O)O)=C(S[C@@H]3CN[C@H](C(=O)N(C)C)C3)[C@H](C)[C@H]12 [MEROPENEM]	–	≤ 1	≤ 1	–	0	≤ 1	≤ 1	0	–	–	–	–	–	–	–
CC1COc2c(N3CCN(C)CC3)c(F)cc3c(=O)c(C(=O)O)cn1c23 (configuration not stated) [OFLOXACIN]	–	> 4	> 4	–	98	≤ 0.5	> 4	33	–	–	–	–	–	–	–
